Earlier results on four compounds are cited in patent US4513029A, “Sea water antifouling method” (priority 1982, dated 1985).

For this data set, the system named is mice. The following applies: oral administration to mice (after 24 hours).
For the compound `[Cu].[O]=[Cu]` [copper suboxide], the LD50 entry is given as “not more than 1,000 mg/kg”.
Consider `CC(=O)[O-].c1cc[c]([Sn+]([c]2ccccc2)[c]2ccccc2)cc1` [tripenyltin acetate], for which the LD50 result is listed as “not more than 1,000 mg/kg”.
As for `[Cl][Sn]([c]1ccccc1)([c]1ccccc1)[c]1ccccc1` [triphenyltin chloride], the LD50 entry was “not more than 1,000 mg/kg”.
Turning to `[OH][Sn]([c]1ccccc1)([c]1ccccc1)[c]1ccccc1` [triphenyltin hydroxide], the LD50 entry was “not more than 1,000 mg/kg”.
